The source of these data is publication PMC5889558, “The inhibition of human lung fibroblast proliferation and differentiation by Gs-coupled receptors is not predicted by the magnitude of cAMP response” (Respiratory Research, 2018).

Holding throughout (type): cell-based
Data set [1] deals with human lung fibroblasts (HLF). Briefly: cAMP accumulation in HLF (HitHunter or AlphaScreen). To be noted: for EC50 / Emax: Homo sapiens, Fibroblast; for EC50: read-out: cAMP pEC50 (converted); for Emax: read-out: cAMP Emax (% max); for cAMP response (in words): acute cAMP accumulation. As for the experimental part:
HLF were grown to confluency in 96-well white ViewPlates, before incubation with a range of agonist concentrations, or vehicle, for 2 h at room temperature in HBSS with 5 mM HEPES, 0.1% w/v HSA, and 5 μM rolipram. […] Rolipram was excluded when measuring cAMP levels in response to PDE inhibitors. cAMP levels were measured using either HitHunter cAMP assay or AlphaScreen competition assay following manufacturer protocol, and were assessed on either a BMG LABTEK ClarioStar or a Packard EnVision plate reader. cAMP concentrations in each well were determined using a standard curve. To account for the inter-assay variation in levels of cAMP produced in each experiment, data were normalized to the maximal forskolin response.
(In general: Changes in cAMP serve as a functional read-out for many G protein-coupled receptors.)

In data set [2] the test system is human lung fibroblasts (HLF). In words: HLF proliferation by BrdU incorporation (DELFIA), driven by FBS or PDGF. To be noted: for Emax / EC50: Homo sapiens, Fibroblast, inhibition of BrdU incorporation, NC = not calculated due to incomplete curve; for EC50: mean ± SEM; for inhibition of FBS- and PDGF-driven proliferation (in words): either stimulus. Here is the method:
Proliferation of HLF was measured by incorporation of bromodeoxyuridine (BrdU). HLF were seeded overnight at 4000 cells/well in 96-well black ViewPlates, before being starved for 24 h in culture medium devoid of FBS. Proliferation was measured after incubation with a range of concentrations of FBS or PDGF, in DMEM supplemented with 0.1% w/v HSA, for 24 h.
For anti-remodelling assays using BrdU incorporation, cells were incubated for 24 h with a range of concentrations of test compounds in the presence of near maximal concentrations of FBS or PDGF in DMEM supplemented with 0.1% w/v HSA. Proliferation was assessed using the DELFIA BrdU incorporation assay kit following manufacturer protocol. Fluorescence was measured using a Packard EnVision plate reader. To account for the inter-assay variation in levels of proliferation in each experiment, data were normalized to the PDGF or FBS response.

Data set [3] concerns human lung fibroblasts (HLF). In words: Cell viability assay, caspase-3/7 as marker of apoptosis. Particulars: 24 h. As for the experimental part:
Cell viability was measured using caspase-3/7 expression as a marker of apoptosis after treatment for 24 h with test compounds. HLF were seeded overnight at 6,000 cells/well in 96-well black ViewPlates, before being starved for 24 hours in culture medium devoid of FBS. Cells were incubated for 24 hours in the presence of test compounds at the top concentrations used in the proliferation assays, or in the presence of 100 nM staurosporine to induce apoptosis.
The presence of the apoptotic marker caspase-3/7 was detected by incubating cells with 8 μM CellEvent™ Caspase-3/7 Red Detection Reagent in dPBS with 5 % FBS, for 30 minutes at 37°C. […] Images were analyzed using a multi wavelength cell scoring algorithm within the MetaXpress 5.3 software, which measures cell number using stained nuclei, and percent of these cells positive for caspase-3/7 from Cy5 readouts. To account for the inter-assay variation in levels of caspase 3/7 detected in each experiment, data were normalized to the staurosporine response.
Statistical significance across treatment groups was determined by using the one-way ANOVA with Dunnett’s multiple-comparison post hoc test.

Data set [4] relates to human lung fibroblasts (HLF). Briefly: Fibroblast to myofibroblast transdifferentiation (FMT), αSMA immunofluorescence, TGFβ-driven. Particulars: 48 h, TGFβ 0.3 ng/mL. As for the experimental part: To assess the differentiation of fibroblasts to the myofibroblast phenotype, immunofluorescence was used to monitor increases in α smooth muscle actin (αSMA). HLF were seeded overnight at 1000 cells/well in 384-well black clear bottom plates, before being starved for 24 h growth medium devoid of FBS.
For anti-remodelling assays using FMT, cells were incubated for 48 h with a range of concentrations of test compounds and incubated for 48 h, at 37°C, 5% CO2 in the presence of a near maximal concentration of TGFβ (0.3 ng/mL), to promote differentiation in DMEM supplemented with 0.1% w/v HSA. Following stimulation, cells were fixed in 4% paraformaldehyde, washed 3× in PBS (with Ca^2+/Mg^2+), and incubated with permeabilising blocking buffer (dPBS (with Ca^2+/Mg^2+), 10% FBS (v/v), 0.1% Triton X-100 (v/v)) for 1 h at 37°C. Wells were then washed 3× in wash buffer (Tris Buffered Saline (TBS), 0.05% (v/v) Tween-20) and incubated with mouse anti-α SMA (1:1000 dilution in permeabilising blocking buffer) for 1 h at room temperature, with gentle shaking. Following 3× wash in wash buffer, wells were incubated with blocking buffer containing Hoechst to stain for nuclear DNA (2 μM), and FITC-conjugated Affini-pure goat […] IgG (1:1000 dilution in blocking buffer) for 30 min at 37°C. Fluorescence was then quantified on a widefield ImageXpress Micro microscope, with a Plan Fluor 20X objective, DAPI filter cube (excitation 400–418 nm, emission 435–470 nm), 50 ms exposure time for nuclei, and FITC filter cube (excitation 467–498 nm, emission 513–556 nm), 200 ms exposure time for αSMA.
To quantify increases in αSMA fluorescence, a standard Multi-Wavelength Cell Scoring algorithm was used in MetaXpress 5.3 software (Molecular Devices, California, USA). To account for the inter-assay variation in levels of αSMA expression produced in each experiment, data were normalized to the response to TGFβ.

Where [5] appears, read: HLF, 2 h, room temperature, 5 μM rolipram (excluded for PDE inhibitors), mean ± SEM, at least 3 experiments, NC = not calculated due to incomplete curve.
Where [6] appears, read: HLF, 2 h, percentage of the maximal forskolin response, mean ± SEM, NC = not calculated due to incomplete curve.
Where [7] appears, read: 24 h, EC80 PDGF, percentage of maximal proliferation observed with PDGF, read-out: Proliferation vs PDGF Emax (% max).
[8] abbreviates: 24 h, EC80 concentration of PDGF, read-out: Proliferation vs PDGF pEC50 (converted).
The mark [9] stands for this setting: 24 h, EC80 concentration of serum, read-out: Proliferation vs serum pEC50 (converted).
[10] abbreviates: 24 h, EC80 serum, percentage of maximal proliferation observed with serum, read-out: Proliferation vs serum Emax (% max).
[11] abbreviates: HLF, 1:10 dilution of top conc 10 μM.
Where [12] appears, read: HLF, top conc 10 μM, mean ± SEM, n=3.

Each structure is given as a SMILES string. “Also recorded” adds a separate entry of the source.

Regarding `CC#CCC(C)[C@H](O)/C=C/[C@@H]1[C@H]2c3cccc(CCCC(=O)O)c3O[C@H]2C[C@H]1O` (mixture of isomers) [Beraprost], in data set [1] (setting [5]), the EC50 was 105 nM. Also, the Emax in data set [1] (setting [6]) is 107 ± 8.99%.

As to `CCCCC(C)(O)C/C=C/[C@H]1[C@H](O)CC(=O)[C@@H]1CCCCCCC(=O)OC` (mixture of isomers) [Misoprostol], the Emax is 94.1 ± 1.59% in data set [2] (setting [7]), 34.7 ± 0.71% in data set [2] (setting [10]) and 52.4 ± 6.23% in data set [1] (setting [6]). Besides, the EC50 was 741 nM in data set [2] (setting [8]), 182 nM in data set [2] (setting [9]) and 107 nM in data set [1] (setting [5]). In data set [3] (human, 1 μM), the “% cells positive for caspase-3/7, 1:10 dilution” value (“% cells positive … 1:10 dilution” below) is recorded as 0.55 ± 0.04%. Besides, the “% cells positive for caspase-3/7, Top conc” value (from here on “% cells positive … Top conc”) in data set [3] (human, 10 μM) was found to be 0.54 ± 0.18%.

On to `O=C(O)COc1cccc(-c2ocnc2-c2nc(-c3ccccc3)c(-c3ccccc3)o2)c1` [BMY-45778], for which the “cAMP pEC50” value in data set [1] (setting [5]) was 7.25 ± 0.09. The “cAMP Emax (% max)” value in data set [1] (setting [6]) is on record as 50.0 ± 4.59 % max.

Take `CCCC1([C@H](O)C/C=C/[C@H]2[C@H](O)CC(=O)[C@@H]2CCCCCCC(=O)OC)CCC1` [Butaprost]: the “maximal level of inhibition of serum-driven proliferation” value in data set [2] (BrdU, 24 h, near maximal FBS) is 29%. Also, the EC50 in data set [2] (setting [9]) was 64.6 nM; in data set [1] (setting [5]), 1550 nM. Further, the Emax was 29.1 ± 7.29% in data set [2] (setting [10]) and 8.76 ± 3.25% in data set [1] (setting [6]). Moreover, in data set [3] (setting [11]), the “% cells positive … 1:10 dilution” value is listed as 0.90 ± 0.39%. For the same compound, the “% cells positive … Top conc” value in data set [3] (setting [12]) is 0.80 ± 0.29%.

Regarding `CCNC(=O)[C@H]1O[C@@H](n2cnc3c(N)nc(NCCc4ccc(CCC(=O)O)cc4)nc32)[C@H](O)[C@@H]1O` [CGS-21680], the “cAMP response (in words)” value in data set [1] (HLF) is reported as “no detectable cAMP response”.

Take `COc1ccc(CC(C)NCC(O)c2ccc(O)c(NC=O)c2)cc1` (stereo not drawn) [Formoterol]: the EC50 is 0.832 nM in data set [2] (setting [8]), 0.263 nM in data set [2] (setting [9]) and 0.417 nM in data set [1] (2 h). Besides, the “% cells positive … 1:10 dilution” value in data set [3] (HLF, 1:10 dilution of top conc 100 nM) came to 0.88 ± 0.48%. Moreover, the “% cells positive … Top conc” value in data set [3] (HLF, top conc 100 nM) was found to be 0.67 ± 0.22%.

Consider `CC(C)Cn1c(=O)n(C)c(=O)c2[nH]cnc21` [IBMX], for which the “inhibition of FBS- and PDGF-driven proliferation (in words)” value in data set [2] (BrdU, 24 h) was “some inhibition of both proliferation and FMT at higher concentrations”. Besides, the “cAMP response (in words)” value in data set [1] (HLF) is on record as “no detectable cAMP accumulation; also recorded: did not observe any acute cAMP accumulation”. Also, in data set [4], the “inhibition of TGFβ-driven FMT (in words)” value was “full concentration-response curves could not be established; also recorded: some inhibition of both proliferation and FMT at higher concentrations”.

In the case of `CC#CCC(C)[C@H](O)/C=C/[C@@H]1[C@H]2C/C(=C/CCCC(=O)O)C[C@H]2C[C@H]1O` (stereo partly drawn) [Iloprost], the “% cells positive … 1:10 dilution” value in data set [3] (human, 0.3 μM) is recorded as 1.15 ± 0.29%. The “% cells positive … Top conc” value in data set [3] (human, 3 μM) came to 0.88 ± 0.08%. In addition, in data set [1] (setting [5]), the EC50 was 77.6 nM. In addition, the Emax in data set [1] (setting [6]) was 99.5 ± 7.22%.

With `CCc1cc2c(cc1CC)CC(NC[C@H](O)c1ccc(O)c3[nH]c(=O)ccc13)C2` [Indacaterol], the results for the Emax in data set [2] (setting [7]), in data set [2] (setting [10]) and in data set [1] (setting [6]) were 90.3 ± 5.25%, 47.9 ± 1.58% and 83.3 ± 4.47%, respectively. Besides, the EC50 in data set [2] (setting [8]) was 1.45 nM; in data set [2] (setting [9]), 11 nM; in data set [1] (setting [5]), 2.63 nM. For the same compound, in data set [3] (HLF, 1:10 dilution of top conc 1 μM), the “% cells positive … 1:10 dilution” value was 0.62 ± 0.15%. The “% cells positive … Top conc” value in data set [3] (HLF, top conc 1 μM) worked out at 0.62 ± 0.01%. Moreover, the “maximal cAMP response” value in data set [1] (HLF, % of the forskolin response) turned out to be 80%.

Regarding `O=C(NOC[C@H](O)CO)c1ccc(F)c(F)c1Nc1ccc(I)cc1F` [PD0325901], in data set [2] (3 ng/mL PDGF), the “inhibition of PDGF-mediated proliferation (in words)” value is “blocked PDGF-mediated proliferation of HLF”.

Consider `CCCCC[C@H](O)/C=C/[C@H]1[C@H](O)CC(=O)[C@@H]1C/C=C\CCCC(=O)O` [PGE2, prostaglandin E2], for which the values for the Emax in data set [2] (setting [7]), in data set [2] (setting [10]) and in data set [1] (setting [6]) were 71 ± 3.86%, 43.1 ± 6.14% and 85.5 ± 8.64%, respectively. In addition, the EC50 was 2.51 nM in data set [2] (setting [8]), 91.2 nM in data set [2] (setting [9]) and 45.7 nM in data set [1] (setting [5]). Besides, in data set [3] (setting [11]), the “% cells positive … 1:10 dilution” value is recorded as 0.53 ± 0.04%. Moreover, the “% cells positive … Top conc” value in data set [3] (setting [12]) amounted to 0.68 ± 0.29%.

With `COc1ccc(C2CNC(=O)C2)cc1OC1CCCC1` (stereo not drawn) [Rolipram], the “inhibition of FBS- and PDGF-driven proliferation (in words)” value in data set [2] (BrdU, 24 h) was “incapable of inhibiting the proliferation mediated by either stimulus”. Besides, the “cAMP response (in words)” value in data set [1] (HLF) is given as “no detectable cAMP accumulation”. In addition, the “inhibition of TGFβ-driven FMT (in words)” value in data set [4] is reported as “full concentration-response curves could not be established”.

For the compound `CC(C)(C)NCC(O)c1ccc(O)c(CO)c1` (stereo not drawn) [Salbutamol], the Emax in data set [2] (setting [7]) was 69.2 ± 5.53%; in data set [2] (setting [10]), 32.4 ± 5.84%; in data set [1] (setting [6]), 68.9 ± 1.4%. Besides, the EC50 was 10.5 nM in data set [2] (setting [8]), 91.2 nM in data set [2] (setting [9]) and 43.7 nM in data set [1] (setting [5]). In addition, the “% cells positive … 1:10 dilution” value in data set [3] (human, 1 μM) is reported as 0.53 ± 0.12%. Also, in data set [3] (human, 10 μM), the “% cells positive … Top conc” value turned out to be 0.46 ± 0.09%.

On to `CN[C@@H]1C[C@H]2O[C@@](C)([C@@H]1OC)n1c3ccccc3c3c4c(c5c6ccccc6n2c5c31)C(=O)NC4` [Staurosporine], for which the “% cells positive … Top conc” value in data set [3] (HLF, top conc 100 nM) is listed as 54.8 ± 13.6%. In addition, in data set [3] (HLF, one-way ANOVA with Dunnett's test), the “caspase-3/7 expression / apoptosis (in words)” value is “statistically significant cell apoptosis”.
